Consider two compounds from US20140370510A1, “MODULATION OF PEPTIDOME USING HISTONE DEACETYLASE INHIBITOR” (University of South Florida (A Florida Non-Profit …, priority 2012, published 2014).

Common to all, as to assay type: cell-based
In assay [1] the test system is CLIP occupancy of MHC class II (HLA-DR) on CIITA-4 melanoma cells, WM9 melanoma cells and Raji B cells. Put plainly: Flow cytometry of surface CLIP and HLA-DR (CLIP/HLA-DR ratio) after HDACi treatment. The settings on record: 5 μM Entinostat or 3 μM Vorinostat, 40 hours, vs DMSO. As for the experimental part: To determine whether HDACi's could affect anti-tumor immunity, major histocompatibility (MHC) class II positive melanoma cells were treated with HDACi's and assayed for potential alterations in the binding of MHC class II to antigenic peptides. More specifically, melanoma cells were treated with Entinostat or Vorinostat, two HDACi's currently used to treat patients. The CIITA-4 melanoma cells were previously transformed with an expression vector for the MHC class II transactivator, CIITA, which leads to constitutive MHC class II expression. The WM9 melanoma cells have naturally occurring CIITA and MHC class II expression. Raji B cells also constitutively express both CIITA and MHC class II.
Cells were cultured in RPMI (antibiotic supplements and 10% fetal calf serum) and treated with either DMSO, 5 μM Entinostat, 3 μM Vorinostat, or 400 units/ml IFN-γ. […] Surface expression of HLA-DR, the most significant MHC class II protein, was detected using flow cytometry. Surface expression of the class II associated invariant chain peptide (CLIP) was also detected using flow cytometry. […]
Samples were analyzed on a BD LSR II flow cytometer (San Jose, Calif.) equipped with 405 nm, 488 nm and 633 nm lasers using BD FacsDiva 6.1.3 software. FITC, PE and DAPI dyes were detected using 530/30, 575/26 and 450/50 band pass filters, respectively. […]
(In general: In flow cytometry, cells or beads pass a laser one at a time.)

Assay [2] concerns cathepsin L1 mRNA in Raji B-cells. As to the kind of experiment: RT-PCR assay of cathepsin L1 mRNA in Raji B-cells. The settings on record: normalized to GAPDH mRNA and DMSO, 40 hours. Here is the method:
(§1) An RT-PCR assay of cathepsin L1 mRNA was performed in treated Raji B-cells. More specifically, RNA was extracted from the DMSO, Entinostat, Vorinostat, and IFN-γ treated Raji B-cells described in Example 1 using an RNeasy Mini Kit< Qiagen cat #74106. RNA quality was verified using a bioanalyzer (Agilent). Reverse transcription of total RNA (1 μg) to cDNA was done with a High Capacity RNA-to-cDNA Master Mix (Applied Biosystems part of Life Technologies, Foster City, Calif., catalog number 4390777). In a 0.2 ml PCR tube, 5×Complete Master Mix (4.0 μl) and nuclease-free H20 were mixed with 1 μg RNA for a total reaction volume of 20 μL. The sample was incubated at 25° C. for 5 minutes, 42° C. for 30 minutes and then 85° C. for 5 minutes in a DNA Engine Peltier thermal cycler (Bio-Rad). qPCR target related: cathepsin L1, CTSL1, RefSeq-NM13 001912.4, amplicon length-85 bp, Assay ID Details-Hs00377632_ml; Cathepsin S, CTSS, RefSeq-NM_004079.4, amplicon length-70 bp, Assay ID Details Hs00175407_ml; GAPDH-glyceraldehyde-3-phosphate dehydrogenase, Gapdh, RefSeq-NM_00246.3, amplicon length-58 bp, Assay ID Details-Hs03929097_gl.
(§2) All primers and probes were from Applied Biosystems Assay-on-Demand. […] The GAPDH was used as an endogenous control for relative qPCR quantification. […]

Assay [3] has as its system cathepsin L1 mRNA in WM9 melanoma cells. As to the kind of experiment: RT-PCR assay of cathepsin L1 mRNA in WM9 melanoma cells. As to conditions: normalized to GAPDH mRNA and DMSO.
In assay [4] the test system is cathepsin S mRNA. As to the kind of experiment: RT-PCR assay of cathepsin S mRNA. The settings on record: normalized to GAPDH mRNA and DMSO. Here is the method:
as §1, §2

Assay [5] has as its system Cathepsin L1. Put plainly: Cathepsin L1 antibody (ctsl1) staining intensity, bright field microscopy. As to conditions: 5 μM Entinostat vs DMSO; p-value <0.0004. As for the experimental part:
In FIG. 6, samples were viewed with a Leica DMLB upright bright field microscope and a 20×/0.5NA HC PL fluortar objective (Leica Microsystems GmbH, Wetzlar, Germany). Transmitted bright light was used without contrasting methods. Gain, offset, and other acquisition settings were identical for all samples within each group. The number of nuclei was determined with auto-threshold segmentation on the cell morphology. The nuclei segmentation was further refined by size and shape of the objects created from the initial segmentation. ImagePro Plus v6.1 (Media Cybernetics, Bethesda, Md.) software was then used to determine the ctsl1 staining intensity (ctsl1 is cathepsin L1 antibody). Positive cells were established as >20DR over background for each 8bit image (0-255DR). The number of pixels over this threshold per cell was used to determine the differences between the Entinostat and DMSO groups. Each image and analysis was blinded and completed in triplicate (p-value <0.0004).

Turning to `Nc1ccccc1NC(=O)c1ccc(CNC(=O)OCc2cccnc2)cc1` [Entinostat], the “amount of CLIP associated with MHC Class II on the APC surface (CLIP occupancy)” value in assay [1] is recorded as “reduction in the amount of CLIP”. Moreover, the “cathepsin L1 mRNA induction” value in assay [2] and in assay [3] was “induces cathepsin L1 mRNA” throughout. Besides, the “cathepsin S mRNA induction” value in assay [4] is on record as “no effect”. For the same compound, in assay [5], the “induction of Cathepsin L1 (ctsl1 staining intensity, FIG. 5)” value is reported as “significant induction”.

On to `O=C(CCCCCCC(=O)Nc1ccccc1)NO` [Vorinostat, Suberoylanilide hydroxamic acid], for which the “amount of CLIP associated with MHC Class II on the APC surface (CLIP occupancy)” value in assay [1] was “reduction in the amount of CLIP”. Moreover, the “cathepsin L1 mRNA induction” value in assay [2] and in assay [3] was “no effect” throughout. In addition, the “cathepsin S mRNA induction” value in assay [4] was “no effect”.
